Assay results published in ChEMBL document CHEMBL6120946, “From Hit to Lead: Discovery of First-In-Class Furanone Glycoside D228 Derived from Chimonanthus salicifolius for the Treatment of Inflammatory Bowel Disease” (J Med Chem, 2024).
Activity calls are given as the source filed them. No cut-off for these calls is given here.

Columns and labels:
[1] = test system: Mus musculus; test: Antiinflammatory activity in DSS-induced male C57BL/6 mouse model assessed as inhibition of TNF-alpha level in colon at 50 to 200 microM/Kg; format: functional, organism-based; settings: dose 50-200 µM/Kg
[2] = test system: Mus musculus; test: Antiinflammatory activity in DSS-induced male C57BL/6 mouse model of inflammatory bowel disease assessed as recovery from body weight loss at 20 mg/kg/day, ip measured after 14 days relative to control; format: functional; settings: time 14 day
[3] = test system: Mus musculus; test: Antiinflammatory activity in DSS-induced male C57BL/6 mouse model of inflammatory bowel disease assessed as inhibition of MPO expression at 50 to 200 microM/Kg, po by immunohistochemical analysis; format: functional, organism-based; settings: dose 50-200 µM/Kg
[4] = test system: Mus musculus; test: Antiinflammatory activity in DSS-induced male C57BL/6 mouse model of inflammatory bowel disease assessed as reduction of bloody stool at 15 to 60 mg/kg/day, po via gavage measured upto 14 days; format: functional, organism-based; settings: dose 15-60 mg/kg/day, time <= 14.0 day
[5] = test system: Mus musculus; test: Antiinflammatory activity in DSS-induced male C57BL/6 mouse model of inflammatory bowel disease assessed as reduction in weight loss at 15 to 60 mg/kg/day, po via gavage measured upto 14 days; format: functional, organism-based; settings: dose 15-60 mg/kg/day, time <= 14.0 day
[6] = test system: Mus musculus; test: Antiinflammatory activity in DSS-induced male C57BL/6 mouse model of inflammatory bowel disease assessed as recovery from body weight loss at 40 mg/kg/day, ip measured after 14 days relative to control; format: functional; settings: time 14 day
[7] = test system: Mus musculus; test: Antiinflammatory activity in DSS-induced male C57BL/6 mouse model assessed as inhibition of IL-6 level in colon at 50 to 200 microM/Kg; format: functional, organism-based; settings: dose 50-200 µM/Kg
[8] = species: Mus musculus; test: Antiinflammatory activity in DSS-induced male C57BL/6 mouse model of inflammatory bowel disease assessed as reduction in TLR7 level; format: functional, organism-based
[9] = species: Mus musculus; test: Antiinflammatory activity in DSS-induced male C57BL/6 mouse model of inflammatory bowel disease assessed as reduction in TLR8 level; format: functional, organism-based
[10] = test system: Mus musculus; test: Antiinflammatory activity in DSS-induced male C57BL/6 mouse model assessed as inhibition of IL-17A level in colon at 50 to 200 microM/Kg; format: functional, organism-based; settings: dose 50-200 µM/Kg
[11] = Toxicity in female Kunming mouse assessed as effect on ALP level in serum at 100 to 500 mg/kg/day, po measured after 5 weeks; format: organism-based; settings: in vivo, 840 h, dose 100-500 mg/kg/day
[12] = test system: Mus musculus; test: Antiinflammatory activity in DSS-induced male C57BL/6 mouse model of inflammatory bowel disease assessed as upregulation of ZO-1 expression in colon at 50 to 100 microM/Kg by immunohistochemical analysis; format: functional, organism-based; settings: dose 50-100 µM/Kg
[13] = Toxicity in male Kunming mouse assessed as effect on TBIL level in serum at 100 to 500 mg/kg/day, po measured after 5 weeks; format: organism-based; settings: in vivo, 840 h, dose 100-500 mg/kg/day
[14] = Toxicity in female Kunming mouse assessed as effect on GLU level in serum at 100 to 500 mg/kg/day, po measured after 5 weeks; format: organism-based; settings: in vivo, 840 h, dose 100-500 mg/kg/day
[15] = Toxicity in female Kunming mouse assessed as effect on K inorganic salt level in serum at 100 to 500 mg/kg/day, po measured after 5 weeks; format: organism-based; settings: in vivo, 840 h, dose 100-500 mg/kg/day
[16] = test system: Mus musculus; test: Antiinflammatory activity in DSS-induced male C57BL/6 mouse model of inflammatory bowel disease assessed as increase in colon length at 45 mg/kg/day, po via gavage measured upto 14 days relative to control; format: functional; settings: time <= 14 day
[17] = Genotoxicity in erythrocyte (unknown origin) by Erythrocyte micronucleus test; format: toxicity, cell-based
[18] = Toxicity in male Kunming mouse assessed as effect on lung at 100 to 500 mg/kg/day, po measured after 5 weeks by H and E staining based analysis; format: organism-based; settings: in vivo, 840 h, dose 100-500 mg/kg/day
[19] = Toxicity in female Kunming mouse assessed as effect on TBIL level in serum at 100 to 500 mg/kg/day, po measured after 5 weeks; format: organism-based; settings: in vivo, 840 h, dose 100-500 mg/kg/day
[20] = Toxicity in male Kunming mouse assessed as effect on heart at 100 to 500 mg/kg/day, po measured after 5 weeks by H and E staining based analysis; format: organism-based; settings: in vivo, 840 h, dose 100-500 mg/kg/day
[21] = test system: Mus musculus; test: Antiinflammatory activity in DSS-induced male C57BL/6 mouse model of inflammatory bowel disease assessed as increase in colon length at 22.5 mg/kg/day, po via gavage measured upto 14 days relative to control; format: functional; settings: time <= 14 day
[22] = test system: Mus musculus; test: Antiinflammatory activity in DSS-induced male C57BL/6 mouse model assessed as increase in IL-10 level in colon at 50 to 100 microM/Kg; format: functional, organism-based; settings: dose 50-100 µM/Kg
[23] = Toxicity in female Kunming mouse assessed as effect on heart at 100 to 500 mg/kg/day, po measured after 5 weeks by H and E staining based analysis; format: organism-based; settings: in vivo, 840 h, dose 100-500 mg/kg/day
[24] = Toxicity in male Kunming mouse assessed as effect on GGT level in serum at 100 to 500 mg/kg/day, po measured after 5 weeks; format: organism-based; settings: in vivo, 840 h, dose 100-500 mg/kg/day
[25] = Toxicity in female Kunming mouse assessed as effect on T-CHO level in serum at 100 to 500 mg/kg/day, po measured after 5 weeks; format: organism-based; settings: in vivo, 840 h, dose 100-500 mg/kg/day
[26] = test system: Mus musculus; test: Antiinflammatory activity in DSS-induced male C57BL/6 mouse model assessed as inhibition of IL-17A level in colon at 50 to 100 microM/Kg; format: functional, organism-based; settings: dose 50-100 µM/Kg
[27] = Toxicity in male Kunming mouse assessed as effect on spleen to body weight ratio at 100 to 500 mg/kg/day, po measured after 5 weeks; format: organism-based; settings: in vivo, 840 h, dose 100-500 mg/kg/day
[28] = test system: Mus musculus; test: Antiinflammatory activity in DSS-induced male C57BL/6 mouse model of inflammatory bowel disease assessed as downregulation of TRAF6 expression at 50 to 100 microM/Kg by Western blot analysis; format: functional, organism-based; settings: dose 50-100 µM/Kg
[29] = Toxicity in male Kunming mouse assessed as effect on kidney at 100 to 500 mg/kg/day, po measured after 5 weeks by H and E staining based analysis; format: organism-based; settings: in vivo, 840 h, dose 100-500 mg/kg/day
[30] = Acute toxicity in female Kunming mouse assessed as effect on kidney 5 g/Kg, po measured after 5 weeks; format: organism-based; settings: in vivo, 5000 mg/kg, 840 h
[31] = Toxicity in female Kunming mouse assessed as effect on liver at 100 to 500 mg/kg/day, po measured after 5 weeks by H and E staining based analysis; format: organism-based; settings: in vivo, 840 h, dose 100-500 mg/kg/day
[32] = Toxicity in female Kunming mouse assessed as effect on Cl inorganic salt level in serum at 100 to 500 mg/kg/day, po measured after 5 weeks; format: organism-based; settings: in vivo, 840 h, dose 100-500 mg/kg/day
[33] = test system: Mus musculus; test: Antiinflammatory activity in DSS-induced male C57BL/6 mouse model of inflammatory bowel disease assessed as amelioration of structural loss of colon at 50 to 100 microM/Kg by H and E staining based analysis; format: functional, organism-based; settings: dose 50-100 µM/Kg
[34] = Acute toxicity in male Kunming mouse assessed as effect on lung 5 g/Kg, po measured after 5 weeks; format: organism-based; settings: in vivo, 5000 mg/kg, 840 h
[35] = Toxicity in female Kunming mouse assessed as effect on CREA level in serum at 100 to 500 mg/kg/day, po measured after 5 weeks; format: organism-based; settings: in vivo, 840 h, dose 100-500 mg/kg/day
[36] = Toxicity in female Kunming mouse assessed as effect on TG level in serum at 100 to 500 mg/kg/day, po measured after 5 weeks; format: organism-based; settings: in vivo, 840 h, dose 100-500 mg/kg/day
[37] = Toxicity in male Kunming mouse assessed as effect on AST level in serum at 100 to 500 mg/kg/day, po measured after 5 weeks; format: organism-based; settings: in vivo, 840 h, dose 100-500 mg/kg/day
[38] = Acute toxicity in male Kunming mouse assessed as effect on heart 5 g/Kg, po measured after 5 weeks; format: organism-based; settings: in vivo, 5000 mg/kg, 840 h

Q: Which results are given for `CC(C)=C1OC(C)=C(O[C@@H]2O[C@H](CO)[C@@H](O)[C@H](O)[C@H]2O)C1=O`?
A: Activity [1]: Active; Activity [2]: 50%; Activity [3]: Active; Activity [4]: Active; Activity [5]: Active; Activity [6]: 56.2%; Activity [7]: Active; Activity [8]: Active; Activity [9]: Active; Activity [10]: Active

Q: Which Activity [11] does the source give for `CC(=O)OC[C@H]1O[C@@H](OC2=C(C)OC(=C(C)C)C2=O)[C@H](OC(C)=O)[C@@H](OC(C)=O)[C@@H]1OC(C)=O` here?
A: Its Activity is “Non-toxic”.

Q: And the Activity [12]?
A: Its Activity is “Active”.

Q: What about the Activity [13] of the same compound?
A: Its Activity is “Non-toxic”.

Q: And the Activity [14]?
A: Its Activity is “Non-toxic”.

Q: What about the Activity [15] of the same compound?
A: Its Activity is “Non-toxic”.

Q: What about the Activity [16] of the same compound?
A: The Activity was 91.4%.

Q: And the Activity [17]?
A: Its Activity is “Non-toxic”.

Q: What about the Activity [18] of the same compound?
A: The Activity was “Non-toxic”.

Q: And the Activity [19]?
A: Its Activity is “Non-toxic”.

Q: What about the Activity [20] of the same compound?
A: Its Activity is “Non-toxic”.

Q: And the Activity [21]?
A: The Activity was 45.3%.

Q: What about the Activity [22] of the same compound?
A: The Activity was “Active”.

Q: What about the Activity [23] of the same compound?
A: Its Activity is “Non-toxic”.

Q: What about the Activity [24] of the same compound?
A: The Activity was “Non-toxic”.

Q: And the Activity [25]?
A: The Activity was “Non-toxic”.

Q: What about the Activity [26] of the same compound?
A: Its Activity is “Active”.

Q: And the Activity [27]?
A: Its Activity is “Non-toxic”.

Q: And the Activity [28]?
A: The Activity was “Active”.

Q: What about the Activity [29] of the same compound?
A: Its Activity is “Non-toxic”.

Q: What about the Activity [30] of the same compound?
A: Its Activity is “Non-toxic”.

Q: And the Activity [31]?
A: Its Activity is “Non-toxic”.

Q: What about the Activity [32] of the same compound?
A: The Activity was “Non-toxic”.

Q: And the Activity [33]?
A: Its Activity is “Active”.

Q: What about the Activity [34] of the same compound?
A: The Activity was “Non-toxic”.

Q: And the Activity [35]?
A: The Activity was “Non-toxic”.

Q: And the Activity [36]?
A: The Activity was “Non-toxic”.

Q: And the Activity [37]?
A: The Activity was “Non-toxic”.

Q: And the Activity [38]?
A: The Activity was “Non-toxic”.
